How the values were obtained:
[1] = Highest frequency of moderate liver toxicity observed during clinical trials, expressed as a percentage. [column '% BIOL' in source]; settings: human
[2] = Highest frequency of acute liver toxicity observed during clinical trials, expressed as a percentage. [column '% AIGUE' in source]; settings: human
[3] = human, serum
[4] = human, serum; remark: listed apart in the source
[5] = human
[6] = human; remark: listed apart in the source
[7] = human; remark: listed apart in the source
[8] = human, serum, 4383 h
[9] = human; remark: listed apart in the source
[10] = human; remark: listed apart in the source
[11] = human; remark: listed apart in the source
[12] = human; remark: listed apart in the source
[13] = human; remark: listed apart in the source
[14] = human; remark: listed apart in the source
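For Hepatotoxicity (association with vascular disease) in this document: count of indexed literature references reporting vascular liver injury in humans, e.g. peliosis hepatitis, hepatic veno-occlusive disease or Budd-Chiari syndrome.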
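For Hepatotoxicity (benign tumour) in this document: value is a count of indexed literature references citing a benign tumour confirmed by histopathology.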
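For Hepatotoxicity (choleostasis) in this document: human cholestatic liver injury, shown by histopathology or by peak ALT or AST elevation over alkaline phosphatase ratio below 2, value counts indexed literature reports.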
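For Hepatotoxicity (chronic liver disease) in this document: chronic liver injury confirmed by histopathology or persistently raised serum aminotransferase activity beyond 6 months, value given as the count of indexed literature references.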
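For Hepatotoxicity (cirrhosis) in this document: value is a count of indexed literature references reporting cirrhosis confirmed by histopathology.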
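For Hepatotoxicity (cytolytic) in this document: human cytolytic liver injury, shown by histopathology or by a ratio above 5 of peak ALT or AST elevation to alkaline phosphatase elevation, value counts indexed references.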
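For Hepatotoxicity (granulomatous hepatitis) in this document: value is a count of indexed literature references reporting granulomatous liver disease confirmed by histopathology.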
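For Hepatotoxicity (malignant tumour) in this document: malignant tumour confirmed by histopathology, value gives the count of indexed literature references reporting it.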
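For Hepatotoxicity (severe hepatitis) in this document: human clinical data: severe hepatitis, meaning potentially life-threatening liver failure or clinically observed cases, the value counts how many indexed literature references report it.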
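For Hepatotoxicity (steatosis) in this document: steatosis confirmed by histopathology, value is the count of indexed references.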

CC/C(=C(/c1ccc(OCCN(C)C)cc1)c1cccc(O)c1)c1ccccc1 [DROLOXIFENE]
Hepatotoxicity (moderate) [1]: 6.6%
Hepatotoxicity (acute) [2]: 0%
Hepatotoxicity (moderate) [3]: 4
Hepatotoxicity (acute) [4]: 0
Hepatotoxicity (cytolytic) [5]: 0
Hepatotoxicity (choleostasis) [6]: 0
Hepatotoxicity (severe hepatitis) [7]: 0
Hepatotoxicity (chronic liver disease) [8]: 0
Hepatotoxicity (cirrhosis) [9]: 0
Hepatotoxicity (granulomatous hepatitis) [10]: 0
Hepatotoxicity (association with vascular disease) [11]: 0
Hepatotoxicity (steatosis) [12]: 0
Hepatotoxicity (malignant tumour) [13]: 0
Hepatotoxicity (benign tumour) [14]: 0

CCC(Cc1cnc2nc(N)nc(N)c2n1)c1ccc(C(=O)N[C@@H](CCC(=O)O)C(=O)O)cc1 (stereo not given in full) [EDATREXATE]
Hepatotoxicity (moderate) [1]: 30%
Hepatotoxicity (acute) [2]: 3.2%
Hepatotoxicity (moderate) [3]: 8
Hepatotoxicity (acute) [4]: 2
Hepatotoxicity (cytolytic) [5]: 2
Hepatotoxicity (choleostasis) [6]: 0
Hepatotoxicity (severe hepatitis) [7]: 0
Hepatotoxicity (chronic liver disease) [8]: 0
Hepatotoxicity (cirrhosis) [9]: 0
Hepatotoxicity (granulomatous hepatitis) [10]: 0
Hepatotoxicity (association with vascular disease) [11]: 0
Hepatotoxicity (steatosis) [12]: 0
Hepatotoxicity (malignant tumour) [13]: 0
Hepatotoxicity (benign tumour) [14]: 0

NCCCC(N)(C(=O)O)C(F)F (stereo not given) [EFLORNITHINE]
Hepatotoxicity (moderate) [1]: 0%
Hepatotoxicity (acute) [2]: 0%
Hepatotoxicity (moderate) [3]: 1
Hepatotoxicity (acute) [4]: 0
Hepatotoxicity (cytolytic) [5]: 0
Hepatotoxicity (choleostasis) [6]: 0
Hepatotoxicity (severe hepatitis) [7]: 0
Hepatotoxicity (chronic liver disease) [8]: 0
Hepatotoxicity (cirrhosis) [9]: 0
Hepatotoxicity (granulomatous hepatitis) [10]: 0
Hepatotoxicity (association with vascular disease) [11]: 0
Hepatotoxicity (steatosis) [12]: 0
Hepatotoxicity (malignant tumour) [13]: 0
Hepatotoxicity (benign tumour) [14]: 0

COc1ccc(C(=O)Nc2ccccc2CCC2CCCCN2C)cc1 (stereo not given) [ENCAINIDE]
Hepatotoxicity (moderate) [1]: 0%
Hepatotoxicity (acute) [2]: 0%
Hepatotoxicity (moderate) [3]: 0
Hepatotoxicity (acute) [4]: 1
Hepatotoxicity (cytolytic) [5]: 0
Hepatotoxicity (choleostasis) [6]: 0
Hepatotoxicity (severe hepatitis) [7]: 0
Hepatotoxicity (chronic liver disease) [8]: 0
Hepatotoxicity (cirrhosis) [9]: 0
Hepatotoxicity (granulomatous hepatitis) [10]: 0
Hepatotoxicity (association with vascular disease) [11]: 0
Hepatotoxicity (steatosis) [12]: 0
Hepatotoxicity (malignant tumour) [13]: 0
Hepatotoxicity (benign tumour) [14]: 0

CSc1ccc(C(=O)c2[nH]c(=O)[nH]c2C)cc1 [ENOXIMONE]
Hepatotoxicity (moderate) [1]: 6%
Hepatotoxicity (acute) [2]: 0%
Hepatotoxicity (moderate) [3]: 3
Hepatotoxicity (acute) [4]: 0
Hepatotoxicity (cytolytic) [5]: 0
Hepatotoxicity (choleostasis) [6]: 0
Hepatotoxicity (severe hepatitis) [7]: 0
Hepatotoxicity (chronic liver disease) [8]: 0
Hepatotoxicity (cirrhosis) [9]: 0
Hepatotoxicity (granulomatous hepatitis) [10]: 0
Hepatotoxicity (association with vascular disease) [11]: 0
Hepatotoxicity (steatosis) [12]: 0
Hepatotoxicity (malignant tumour) [13]: 0
Hepatotoxicity (benign tumour) [14]: 0

CN1C[C@H](C(=O)N[C@]2(C)O[C@@]3(O)[C@@H]4CCCN4C(=O)[C@H](Cc4ccccc4)N3C2=O)C=C2c3cccc4[nH]cc(c34)C[C@H]21 [ERGOTAMINE]
Hepatotoxicity (moderate) [1]: 35.7%
Hepatotoxicity (acute) [2]: 0%
Hepatotoxicity (moderate) [3]: 1
Hepatotoxicity (acute) [4]: 0
Hepatotoxicity (cytolytic) [5]: 0
Hepatotoxicity (choleostasis) [6]: 0
Hepatotoxicity (severe hepatitis) [7]: 0
Hepatotoxicity (chronic liver disease) [8]: 0
Hepatotoxicity (cirrhosis) [9]: 0
Hepatotoxicity (granulomatous hepatitis) [10]: 0
Hepatotoxicity (association with vascular disease) [11]: 0
Hepatotoxicity (steatosis) [12]: 0
Hepatotoxicity (malignant tumour) [13]: 0
Hepatotoxicity (benign tumour) [14]: 0

C=C(OC)C(=O)Nc1cc(OC)c(OC)cc1C(=O)O[C@H]1C[C@H](O[C@@H]2C(=O)C(NC(=O)OC)=C3/C(=C\CSSSC)[C@]2(O)C#C/C=C\C#C[C@@H]3O[C@@H]2O[C@H](C)[C@@H](NO[C@H]3C[C@H](O)[C@H](SC)[C@@H](C)O3)[C@H](O)[C@H]2O[C@H]2C[C@H](OC)[C@@H](NC(C)C)CO2)O[C@@H](C)[C@H]1O [ESPERAMICIN A1]
Hepatotoxicity (moderate) [1]: 10.7%
Hepatotoxicity (acute) [2]: 0%
Hepatotoxicity (moderate) [3]: 1
Hepatotoxicity (acute) [4]: 0
Hepatotoxicity (cytolytic) [5]: 0
Hepatotoxicity (choleostasis) [6]: 0
Hepatotoxicity (severe hepatitis) [7]: 0
Hepatotoxicity (chronic liver disease) [8]: 0
Hepatotoxicity (cirrhosis) [9]: 0
Hepatotoxicity (granulomatous hepatitis) [10]: 0
Hepatotoxicity (association with vascular disease) [11]: 0
Hepatotoxicity (steatosis) [12]: 0
Hepatotoxicity (malignant tumour) [13]: 0
Hepatotoxicity (benign tumour) [14]: 0

C#CC(O)(/C=C/Cl)CC (stereo not given) [ETHCHLORVYNOL]
Hepatotoxicity (moderate) [1]: 0%
Hepatotoxicity (acute) [2]: 0%
Hepatotoxicity (moderate) [3]: 0
Hepatotoxicity (acute) [4]: 2
Hepatotoxicity (cytolytic) [5]: 0
Hepatotoxicity (choleostasis) [6]: 2
Hepatotoxicity (severe hepatitis) [7]: 0
Hepatotoxicity (chronic liver disease) [8]: 0
Hepatotoxicity (cirrhosis) [9]: 0
Hepatotoxicity (granulomatous hepatitis) [10]: 0
Hepatotoxicity (association with vascular disease) [11]: 0
Hepatotoxicity (steatosis) [12]: 0
Hepatotoxicity (malignant tumour) [13]: 0
Hepatotoxicity (benign tumour) [14]: 0

CCN1C(=O)NC(c2ccccc2)C1=O (stereo not given) [ETHOTOIN]
Hepatotoxicity (moderate) [1]: 2%
Hepatotoxicity (acute) [2]: 0%
Hepatotoxicity (moderate) [3]: 1
Hepatotoxicity (acute) [4]: 0
Hepatotoxicity (cytolytic) [5]: 0
Hepatotoxicity (choleostasis) [6]: 0
Hepatotoxicity (severe hepatitis) [7]: 0
Hepatotoxicity (chronic liver disease) [8]: 0
Hepatotoxicity (cirrhosis) [9]: 0
Hepatotoxicity (granulomatous hepatitis) [10]: 0
Hepatotoxicity (association with vascular disease) [11]: 0
Hepatotoxicity (steatosis) [12]: 0
Hepatotoxicity (malignant tumour) [13]: 0
Hepatotoxicity (benign tumour) [14]: 0

CC(O)(P(=O)(O)O)P(=O)(O)O [ETIDRONIC ACID]
Hepatotoxicity (moderate) [1]: 8.7%
Hepatotoxicity (acute) [2]: 0%
Hepatotoxicity (moderate) [3]: 1
Hepatotoxicity (acute) [4]: 0
Hepatotoxicity (cytolytic) [5]: 0
Hepatotoxicity (choleostasis) [6]: 0
Hepatotoxicity (severe hepatitis) [7]: 0
Hepatotoxicity (chronic liver disease) [8]: 0
Hepatotoxicity (cirrhosis) [9]: 0
Hepatotoxicity (granulomatous hepatitis) [10]: 0
Hepatotoxicity (association with vascular disease) [11]: 0
Hepatotoxicity (steatosis) [12]: 0
Hepatotoxicity (malignant tumour) [13]: 0
Hepatotoxicity (benign tumour) [14]: 0

CC(C)(Oc1ccc(Cl)cc1)C(=O)OCCOC(=O)c1cccnc1 [ETOFIBRATE]
Hepatotoxicity (moderate) [1]: 0%
Hepatotoxicity (acute) [2]: 0%
Hepatotoxicity (moderate) [3]: 1
Hepatotoxicity (acute) [4]: 0
Hepatotoxicity (cytolytic) [5]: 0
Hepatotoxicity (choleostasis) [6]: 0
Hepatotoxicity (severe hepatitis) [7]: 0
Hepatotoxicity (chronic liver disease) [8]: 0
Hepatotoxicity (cirrhosis) [9]: 0
Hepatotoxicity (granulomatous hepatitis) [10]: 0
Hepatotoxicity (association with vascular disease) [11]: 0
Hepatotoxicity (steatosis) [12]: 0
Hepatotoxicity (malignant tumour) [13]: 0
Hepatotoxicity (benign tumour) [14]: 0

COc1ccc(CCN(C)CCCOc2ccc(S(=O)(=O)c3c(C(C)C)cn4ccccc34)cc2)cc1OC [FANTOFARONE]
Hepatotoxicity (moderate) [1]: 2.7%
Hepatotoxicity (acute) [2]: 0%
Hepatotoxicity (moderate) [3]: 1
Hepatotoxicity (acute) [4]: 0
Hepatotoxicity (cytolytic) [5]: 0
Hepatotoxicity (choleostasis) [6]: 0
Hepatotoxicity (severe hepatitis) [7]: 0
Hepatotoxicity (chronic liver disease) [8]: 0
Hepatotoxicity (cirrhosis) [9]: 0
Hepatotoxicity (granulomatous hepatitis) [10]: 0
Hepatotoxicity (association with vascular disease) [11]: 0
Hepatotoxicity (steatosis) [12]: 0
Hepatotoxicity (malignant tumour) [13]: 0
Hepatotoxicity (benign tumour) [14]: 0

C[C@@H](O)[C@H]1C(=O)N2C(C(=O)O)=C([C@H]3CCCO3)S[C@H]12 [FAROPENEM]
Hepatotoxicity (moderate) [1]: 20%
Hepatotoxicity (acute) [2]: 0%
Hepatotoxicity (moderate) [3]: 39
Hepatotoxicity (acute) [4]: 0
Hepatotoxicity (cytolytic) [5]: 0
Hepatotoxicity (choleostasis) [6]: 0
Hepatotoxicity (severe hepatitis) [7]: 0
Hepatotoxicity (chronic liver disease) [8]: 0
Hepatotoxicity (cirrhosis) [9]: 0
Hepatotoxicity (granulomatous hepatitis) [10]: 0
Hepatotoxicity (association with vascular disease) [11]: 0
Hepatotoxicity (steatosis) [12]: 0
Hepatotoxicity (malignant tumour) [13]: 0
Hepatotoxicity (benign tumour) [14]: 0

Nc1ncn([C@@H]2O[C@H](CO)[C@@H](O)[C@@H]2O)c(=O)n1 [FAZARABINE]
Hepatotoxicity (moderate) ([1]; Liver): 46.4%
Hepatotoxicity (acute) ([2]; Liver): 0%
Hepatotoxicity (moderate) [3]: 1
Hepatotoxicity (acute) [4]: 0
Hepatotoxicity (cytolytic) ([5]; Liver): 0
Hepatotoxicity (choleostasis) ([6]; Liver): 0
Hepatotoxicity (severe hepatitis) ([7]; Liver): 0
Hepatotoxicity (chronic liver disease) [8]: 0
Hepatotoxicity (cirrhosis) [9]: 0
Hepatotoxicity (granulomatous hepatitis) ([10]; Liver): 0
Hepatotoxicity (association with vascular disease) [11]: 0
Hepatotoxicity (steatosis) [12]: 0
Hepatotoxicity (malignant tumour) [13]: 0
Hepatotoxicity (benign tumour) [14]: 0

CCOC(=O)C1=C(C)NC(C)=C(C(=O)OC)C1c1cccc(Cl)c1Cl (stereo not given) [FELODIPINE]
Hepatotoxicity (moderate) ([1]; Liver): 20%
Hepatotoxicity (acute) ([2]; Liver): 0%
Hepatotoxicity (moderate) [3]: 3
Hepatotoxicity (acute) [4]: 0
Hepatotoxicity (cytolytic) [5]: 0
Hepatotoxicity (choleostasis) [6]: 0
Hepatotoxicity (severe hepatitis) ([7]; Liver): 0
Hepatotoxicity (chronic liver disease) [8]: 0
Hepatotoxicity (cirrhosis) [9]: 0
Hepatotoxicity (granulomatous hepatitis) [10]: 0
Hepatotoxicity (association with vascular disease) [11]: 0
Hepatotoxicity (steatosis) [12]: 0
Hepatotoxicity (malignant tumour) [13]: 0
Hepatotoxicity (benign tumour) [14]: 0

From ChEMBL document CHEMBL3137667, “[Drug-induced liver injury; fourteenth updated edition of the bibliographic database of liver injuries and related drugs]” (Gastroenterol Clin Biol, 2004)
